Legend:
[1] = Cytotoxicity against human MDA-MB cells under deem light after 96 hrs by MTT assay; assay type: functional, cell-based
[2] = system: K562; experiment: Survival of human K562 cells at 0.1 uM under deem light after 96 hrs by MTT assay relative to control; assay type: functional; details: K562, 96 h, read-out: Survival
[3] = system: HeLa; experiment: Cytotoxicity against human HeLa cells under deem light after 96 hrs by MTT assay; assay type: functional, cell-based
[4] = system: HeLa; experiment: Survival of human HeLa cells at 0.1 uM under deem light after 96 hrs by MTT assay relative to control; assay type: functional; details: read-out: Survival
[5] = system: K562; experiment: Survival of human K562 cells at 10 uM under deem light after 96 hrs by MTT assay relative to control; assay type: functional; details: K562, 96 h, read-out: Survival
[6] = Survival of human MDA-MB cells at 0.1 uM under deem light after 96 hrs by MTT assay relative to control; assay type: functional; details: read-out: Survival
[7] = Photohemolysis in human RBC assessed as concentration required to 50% hemolysis under light exposure for 10 mins; assay type: ADME, cell-based, Erythrocyte; details: human red blood cells, read-out: Activity
[8] = Cytotoxicity against human 2780.9S cells under deem light after 96 hrs by MTT assay; assay type: functional, cell-based
[9] = Survival of human H209 cells at 1 uM under deem light after 96 hrs by MTT assay relative to control; assay type: functional; details: NCI-H209, 96 h, read-out: Survival
[10] = system: HeLa; experiment: Survival of human HeLa cells at 1 uM under deem light after 96 hrs by MTT assay relative to control; assay type: functional; details: read-out: Survival
[11] = system: NCI-H69; experiment: Survival of human H69 cells at 50 uM under deem light after 96 hrs by MTT assay relative to control; assay type: functional; details: NCI-H69, 96 h, read-out: Survival
[12] = system: NCI-H69; experiment: Survival of human H69 cells at 100 uM under deem light after 96 hrs by MTT assay relative to control; assay type: functional; details: NCI-H69, 96 h, read-out: Survival
[13] = system: K562; experiment: Cytotoxicity against human K562 cells under deem light after 96 hrs by MTT assay; assay type: functional, cell-based; details: K562, 96 h
[14] = system: SiHa; experiment: Survival of human SIHA cells at 100 uM under deem light after 96 hrs by MTT assay relative to control; assay type: functional; details: read-out: Survival
[15] = Survival of human MDA-MB cells at 10 uM under deem light after 96 hrs by MTT assay relative to control; assay type: functional; details: read-out: Survival
[16] = Survival of human 2780.9S cells at 100 uM under deem light after 96 hrs by MTT assay relative to control; assay type: functional; details: read-out: Survival
[17] = system: HeLa; experiment: Survival of human HeLa cells at 100 uM under deem light after 96 hrs by MTT assay relative to control; assay type: functional; details: read-out: Survival
[18] = system: Raji; experiment: Survival of human Raji cells at 100 uM under deem light after 96 hrs by MTT assay relative to control; assay type: functional; details: read-out: Survival
[19] = Survival of human H209 cells at 50 uM under deem light after 96 hrs by MTT assay relative to control; assay type: functional; details: NCI-H209, 96 h, read-out: Survival
[20] = system: HeLa; experiment: Survival of human HeLa cells at 10 uM under deem light after 96 hrs by MTT assay relative to control; assay type: functional; details: read-out: Survival
[21] = Survival of human H209 cells at 0.1 uM under deem light after 96 hrs by MTT assay relative to control; assay type: functional; details: NCI-H209, 96 h, read-out: Survival
[22] = system: HeLa; experiment: Survival of human HeLa cells at 50 uM under deem light after 96 hrs by MTT assay relative to control; assay type: functional; details: read-out: Survival
[23] = system: NCI-H69; experiment: Survival of human H69 cells at 0.1 uM under deem light after 96 hrs by MTT assay relative to control; assay type: functional; details: NCI-H69, 96 h, read-out: Survival
[24] = Photohemolysis in human RBC at 190 nM under exposure to light for 10 mins; assay type: ADME, cell-based, Erythrocyte; details: human red blood cells, read-out: Activity
[25] = system: Raji; experiment: Survival of human Raji cells at 10 uM under deem light after 96 hrs by MTT assay relative to control; assay type: functional; details: read-out: Survival
[26] = system: K562; experiment: Survival of human K562 cells at 50 uM under deem light after 96 hrs by MTT assay relative to control; assay type: functional; details: K562, 96 h, read-out: Survival
[27] = system: SiHa; experiment: Survival of human SIHA cells at 50 uM under deem light after 96 hrs by MTT assay relative to control; assay type: functional; details: read-out: Survival
[28] = Survival of human MDA-MB cells at 100 uM under deem light after 96 hrs by MTT assay relative to control; assay type: functional; details: read-out: Survival
[29] = Survival of human MDA-MB cells at 1 uM under deem light after 96 hrs by MTT assay relative to control; assay type: functional; details: read-out: Survival
[30] = Survival of human 2780.9S cells at 50 uM under deem light after 96 hrs by MTT assay relative to control; assay type: functional; details: read-out: Survival
[31] = Survival of human 2780.9S cells at 0.1 uM under deem light after 96 hrs by MTT assay relative to control; assay type: functional; details: read-out: Survival
[32] = Survival of human 2780.9S cells at 10 uM under deem light after 96 hrs by MTT assay relative to control; assay type: functional; details: read-out: Survival
[33] = system: SiHa; experiment: Survival of human SIHA cells at 1 uM under deem light after 96 hrs by MTT assay relative to control; assay type: functional; details: read-out: Survival
[34] = system: Raji; experiment: Survival of human Raji cells at 1 uM under deem light after 96 hrs by MTT assay relative to control; assay type: functional; details: read-out: Survival
[35] = system: SiHa; experiment: Cytotoxicity against human SIHA cells under deem light after 96 hrs by MTT assay; assay type: functional, cell-based
[36] = Photohemolysis in human RBC at 250 nM in absence of light; assay type: ADME, cell-based, Erythrocyte; details: human red blood cells, read-out: Activity
[37] = system: NCI-H69; experiment: Survival of human H69 cells at 1 uM under deem light after 96 hrs by MTT assay relative to control; assay type: functional; details: NCI-H69, 96 h, read-out: Survival
[38] = system: Daudi; experiment: Cytotoxicity against human Daudi cells under deem light after 96 hrs by MTT assay; assay type: functional, cell-based
[39] = Survival of human MDA-MB cells at 50 uM under deem light after 96 hrs by MTT assay relative to control; assay type: functional; details: read-out: Survival
[40] = system: Raji; experiment: Cytotoxicity against human Raji cells under deem light after 96 hrs by MTT assay; assay type: functional, cell-based
[41] = system: Raji; experiment: Survival of human Raji cells at 50 uM under deem light after 96 hrs by MTT assay relative to control; assay type: functional; details: read-out: Survival
[42] = system: NCI-H69; experiment: Cytotoxicity against human H69 cells under deem light after 96 hrs by MTT assay; assay type: functional, cell-based; details: NCI-H69, 96 h
[43] = system: K562; experiment: Survival of human K562 cells at 1 uM under deem light after 96 hrs by MTT assay relative to control; assay type: functional; details: K562, 96 h, read-out: Survival
[44] = Survival of human H209 cells at 100 uM under deem light after 96 hrs by MTT assay relative to control; assay type: functional; details: NCI-H209, 96 h, read-out: Survival
[45] = Survival of human 2780.9S cells at 1 uM under deem light after 96 hrs by MTT assay relative to control; assay type: functional; details: read-out: Survival
[46] = system: K562; experiment: Survival of human K562 cells at 100 uM under deem light after 96 hrs by MTT assay relative to control; assay type: functional; details: K562, 96 h, read-out: Survival
[47] = Survival of human H209 cells at 10 uM under deem light after 96 hrs by MTT assay relative to control; assay type: functional; details: NCI-H209, 96 h, read-out: Survival
[48] = Photohemolysis in human RBC assessed as concentration required to 50% hemolysis under light exposure for 5 mins; assay type: ADME, cell-based, Erythrocyte; details: human red blood cells, read-out: Activity
[49] = system: Raji; experiment: Survival of human Raji cells at 0.1 uM under deem light after 96 hrs by MTT assay relative to control; assay type: functional; details: read-out: Survival
[50] = system: NCI-H69; experiment: Survival of human H69 cells at 10 uM under deem light after 96 hrs by MTT assay relative to control; assay type: functional; details: NCI-H69, 96 h, read-out: Survival
[51] = system: SiHa; experiment: Survival of human SIHA cells at 10 uM under deem light after 96 hrs by MTT assay relative to control; assay type: functional; details: read-out: Survival

C=Cc1c(C)c2cc3nc(c(CC(=O)OC)c4[nH]c(cc5nc(cc1[nH]2)C(C)=C5CC)c(C)c4C(=O)NCCO)C(CCC(=O)OC)C3C (stereo unspecified) [PHEOPHORBIDE A ETHANOLAMIDE]
IC50 [1]: 35 µM
viability at 0.1 µM [2]: 129%
IC50 [3]: 35 µM
viability at 0.1 µM [4]: 126%
viability at 10 µM [5]: 115%
viability at 0.1 µM [6]: 110%
HC50 at 10 min [7]: 140 nM
IC50 [8]: 35 µM
viability at 1 µM [9]: 102%
viability at 1 µM [10]: 114%
viability at 50 µM [11]: 58.7%
viability at 100 µM [12]: 14.4%
IC50 [13]: 35 µM
viability at 100 µM [14]: 1.1%
viability at 10 µM [15]: 107%
viability at 100 µM [16]: 1.7%
viability at 100 µM [17]: 7.8%
viability at 100 µM [18]: 3.3%
viability at 50 µM [19]: 59.4%
viability at 10 µM [20]: 113%
viability at 0.1 µM [21]: 102%
viability at 50 µM [22]: 6.3%
viability at 0.1 µM [23]: 95.7%
hemolysis at 10 min, 0.19 µM [24]: 100%
viability at 10 µM [25]: 121%
viability at 50 µM [26]: 6.1%
viability at 50 µM [27]: 1.2%
viability at 100 µM [28]: 1.6%
viability at 1 µM [29]: 121%
viability at 50 µM [30]: 1.7%
viability at 0.1 µM [31]: 98.8%
viability at 10 µM [32]: 99%
viability at 1 µM [33]: 97.8%
viability at 1 µM [34]: 119%
IC50 [35]: 35 µM
hemolysis at 0.25 µM [36]: 17%
viability at 1 µM [37]: 101%
IC50 [38]: 35 µM
viability at 50 µM [39]: 1.6%
IC50 [40]: 35 µM
viability at 50 µM [41]: 2.5%
IC50 [42]: 55 µM
viability at 1 µM [43]: 113%
viability at 100 µM [44]: 5.2%
viability at 1 µM [45]: 117%
viability at 100 µM [46]: 2.9%
viability at 10 µM [47]: 106%
HC50 at 5 min [48]: 80 nM
viability at 0.1 µM [49]: 118%
viability at 10 µM [50]: 98.4%
viability at 10 µM [51]: 99.9%

Reference: ChEMBL document CHEMBL1141575, “Preparation and in vitro biological evaluation of tetrapyrrole ethanolamide derivatives as potential anticancer agents” (Bioorg Med Chem Lett, 2008)
